Laboratory results: patent publication US20260242759A1, “GQ/11 Protein Peptidomimetics” (Vrije Universiteit Brussel, priority 2022, published 2026)
Positions of bridges follow the written chain, without caps; N, C: chain ends. Non-standard residues stand in square brackets, D forms with d. Residues, ends and D or L forms follow the SMILES beside them. Triazole bridges read from a SMILES are 1,4-linked. Lys(N3) = [N-]=[N+]=NCCCC[C@H](N)C(=O)O; Cha = N[C@@H](CC1CCCCC1)C(=O)O; Pra = C#CC[C@H](N)C(=O)O

Columns and labels:
[1] = target: T1, human muscarinic 1 receptor (M1R) (Homo sapiens, UniProt P11229); assay: Radioligand binding assay (RLA) on M1R membrane extracts; conditions: for Shift: IC50 of agonist without mimetic divided by IC50 with mimetic, averaged value; for increase of agonist affinity / stabilization of the receptor: acetylcholine chloride, mimetic at 100 μM
T1 construct: The M1R constructs used in this assay consisted of the full-length human muscarinic 1 receptor; FLAG (N); expressed in transfected cells; membrane extracts
T1 sequence (P11229 1-460): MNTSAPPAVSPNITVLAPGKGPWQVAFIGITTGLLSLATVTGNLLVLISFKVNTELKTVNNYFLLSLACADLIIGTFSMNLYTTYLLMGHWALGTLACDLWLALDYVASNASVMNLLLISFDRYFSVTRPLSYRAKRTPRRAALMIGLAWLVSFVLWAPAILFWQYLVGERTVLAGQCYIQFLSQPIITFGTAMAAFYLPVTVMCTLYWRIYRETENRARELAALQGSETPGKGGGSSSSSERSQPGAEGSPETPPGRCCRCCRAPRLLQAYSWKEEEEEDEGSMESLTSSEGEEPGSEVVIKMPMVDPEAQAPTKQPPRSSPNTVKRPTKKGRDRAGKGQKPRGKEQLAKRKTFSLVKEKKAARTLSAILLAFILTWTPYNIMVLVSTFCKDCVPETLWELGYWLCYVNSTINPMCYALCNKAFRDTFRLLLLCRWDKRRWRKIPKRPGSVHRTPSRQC
Text: A radioligand displacement assay can quantify the pharmacological stabilization of the GPCR in the active conformation by comparing the affinities of an agonist for the basal versus the active GPCR conformer. In particular, stabilization of a GPCR in an active conformational state or specific binding to a GPCR in an active conformational state by a G protein peptidomimetic or a Gq/11 protein peptidomimetic as disclosed herein can be determined based on the shift in IC50 value of a ligand, in particular an agonist more particularly an orthosteric agonist, which binds to the GPCR when tested in the presence and the absence of the G protein peptidomimetic or the Gq/11 protein peptidomimetic. During the assay, the binding affinity of an orthosteric agonist for the receptor in presence and absence of the (allosteric) peptidomimetic is determined. Therefore, the GPCR, e.g. embedded in membrane extracts, is incubated with a radioligand and different concentrations of the agonist. By increasing the agonist concentration, radioligand will be displaced by the agonist. A leftward shift of the curve in the presence of the peptidomimetic is indicative of a peptidomimetic capable of stabilizing a GPCR in an active conformational state. A “shift” in IC50 value or IC50 shift is defined herein as the IC50 ratio of a ligand, in particular an agonist, more particularly an orthosteric agonist, which binds to the GPCR in the absence of a G protein peptidomimetic or a Gq/11 protein peptidomimetic relative to the presence of the G protein peptidomimetic or the Gq/11 protein peptidomimetic, or the IC50 value of a ligand, in particular an agonist, for binding to the GPCR in the absence of a G protein peptidomimetic or a Gq/11 protein peptidomimetic divided by the IC50 value of the ligand in the presence of the G protein peptidomimetic or the Gq/11 protein peptidomimetic in the same preparation, wherein said IC50 values are determined in a radioligand binding assay or radioligand displacement assay (RLA) as known to the skilled person. For example, a human muscarinic acetylcholine 1 receptor (M1R) radioligand binding assay using ^3H—N-methyl scopolamine (^3H-NMS) as the radioligand and increasing concentrations of acetylcholine chloride (agonist) as cold competitor may be used.
The membrane extracts were prepared from cells that overexpressed muscarinic acetylcholine 1 receptor (M1R), by resuspending the cell pellet in a buffer (1 ml buffer/2×1E7 cells) containing 20 mM Hepes (pH 7.4), 100 mM NaCl, Leupeptin and phenylmethylsulfonyl fluoride (PMSF). Afterwards the cells were vortexed and homogenized in ice using a small volume ULTRA-TURRAX® (6×10 sec). The cells were then centrifuged for 15 min at 16000 rcf, in a pre-cooled centrifuge (4° C.) and resuspended in the previous buffer containing 10% sucrose. Finally, the membranes were again homogenized in ice with the small volume ULTRA-TURRAX® (3×10 sec). The protein concentration in the membrane extracts was determined using a Pierce™ bicinchoninic acidv (BCA) Protein Assay Kit and the protein concentration was extrapolated from the Bovine Serum Albumine standard curve.
The M1R constructs used in this assay consisted of the full-length human muscarinic 1 receptor with a FLAG tag at the N-terminus. A buffer containing 20 mM Hepes pH 7.4, 100 mM NaCl, and 0.1% BSA was used for the ligands, membrane extracts and peptides (+1% dimethylsulfoxide (DMSO)). The competition assay was performed with [3H]—N-methyl scopolamine ([3H]-NMS) as radiolabeled antagonist, at a final concentration of 0.6 nM. A ten-fold dilution series of the agonist, acetylcholine chloride, was prepared to obtain a dose response curve. After incubation, the samples were harvested into filter plates (GF/C) and washed with ice cold washing buffer (20 mM Hepes pH 7.4) using the 96-well harvester. […]

[2] = target: T2, human ghrelin receptor (GHSR) (Homo sapiens, UniProt Q92847, C146S/C304S); assay: Bimane fluorescence assay on purified ghrelin receptor in nanodiscs; assay type: biochemical; conditions: bimane labeled GHSR; for conformational change in the receptor: in presence of JMV1843; for maximum emission wavelength of bimane: in presence of full agonist JMV1843 (20 μM)
T2 construct: integrin α5 fragment (N); polyhistidine tag (C); made in house; host or cells: E. coli BL21(DE3)
Text: Another assay that can be used to analyse conformational changes associated with GPCR activation and/or to identify G protein peptidomimetics that are capable of stabilizing a GPCR in an active conformational state is the bimane fluorescence assay or bimane assay. This assay works through labelling of a cysteine residue in the lower part of the TM6 of a GPCR with a bimane-fluorophore (monobromobimane (MB)). Binding of an agonist to the GPCR causes a conformational change and outward movement of TM6 that places bimane in a more solved-exposed position, which will alter its maximum emission wavelength. In particular, increasing concentrations of agonist result in a concentration-dependent red-shift of the maximum emission wavelength (λmax) of the bimane-fluorophore probe. In the presence of a G protein or an active state stabilizing G protein peptidomimetic λmax may increase further. For example, a bimane labelled ghrelin receptor (such as a cysmin mutant (i.e. mutant with minimal cysteines) of human ghrelin receptor (also referred to herein as growth hormone secretagogue receptor (GHSR) (e.g. the mutant as described in Damian et al. (2021) wherein monobromobimane (MB) fluorescent probe is attached to Cys^255) and ghrelin receptor agonist JMV1843 may be used.
The bimane fluorescence assays on the ghrelin receptor were performed as described in Damian et al. (2021. Nat. Commun. 12:1-15). Briefly, E. coli bacteria (BL21(DE3)) were transformed with a vector encoding the human ghrelin receptor with an integrin α5 fragment at the N-terminus and a polyhistidine tag at the C-terminus. The receptors were then purified and reconstituted into lipidated nanodiscs. The monobromobimane labeling was performed by incubating the receptors, with a unique reactive cysteine at position 255, during 16 h in the dark at 4° C. and in the presence of 0.1 mM tris(2-carboxyethyl)phosphine (TCEO). The reaction was terminated with 5 mM L-cysteine and unreacted monobromobimane was removed using a Zeba™ Spin desalting column.
For the fluorescence assay, the labeled receptor was incubated during 2 h at 20° C. (0.2 μM final concentration), in the absence or presence of the full agonist JMV1843 (20 μM) and in the absence or presence of either the peptidomimetics at varying molar ratios or the purified Gαqβ1γ2 heterotrimer, at a 1:5 receptor-to-G protein molar ratio. Afterwards, the fluorescence experiments were performed on a Horiba Fluoromax-4 TCSP spectrofluorimeter. For each scan, the excitation wavelength (λexc) was set at 380 nm and emission was collected between 440 nm and 520 nm.
The bimane assay is used on GPCRs to detect conformational changes associated with receptor activation. This assay functions through the labelling of a cysteine, which is one of the least frequently occurring amino acids in proteins. Additionally, the majority of the extracellular cysteines form disulfide bonds, which, together with the transmembrane cysteines, are inert to thiol-reactive reagents. Additionally, some of the intracellular cysteines in the C-terminal tail may carry post-translational modifications which reduces the number of reactive cysteines in the receptor (Tian et al. 2017. Chem. Rev. 117:186-245). For GHSR, the remaining reactive cysteine residues C146 (ICL2) and C304 (extracellular end of TM7) were replaced by serines (cysmin mutant, i.e. mutant with minimal cysteines), to allow the monobromobimane (MB) fluorescent probe to be specifically attached to Cys255 in the lower part of TM6 (FIG. 5a) (Damian et al. 2021). In this assay, bimane is chosen because of its small size and sensitivity to the polarity of its environment (Yao et al. 2006. Nat Chem. Biol. 2:417-422). Binding of a ligand to the receptor, causes a conformational change and outward movement of TM6 that places bimane in a more solvent-exposed position, which alters its maximum emission wavelength. […]

T2 sequence (Q92847 whole entry C146S/C304S, the tested form may be a part): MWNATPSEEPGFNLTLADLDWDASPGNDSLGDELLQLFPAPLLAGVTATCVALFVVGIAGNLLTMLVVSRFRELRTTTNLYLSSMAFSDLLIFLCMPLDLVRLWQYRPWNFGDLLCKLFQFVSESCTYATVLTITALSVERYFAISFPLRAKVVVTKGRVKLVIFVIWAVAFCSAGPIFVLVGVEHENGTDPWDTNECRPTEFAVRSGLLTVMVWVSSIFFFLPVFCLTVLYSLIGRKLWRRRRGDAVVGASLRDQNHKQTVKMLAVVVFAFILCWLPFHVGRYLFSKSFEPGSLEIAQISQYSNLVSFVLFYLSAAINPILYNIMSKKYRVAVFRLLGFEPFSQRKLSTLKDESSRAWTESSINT

Molecule	Shift [1]	conformational change in the receptor [2]	increase of agonist affinity / stabilization of the receptor [1]	maximum emission wavelength of bimane [2] [nm]
CC[C@H](C)[C@H](NC(=O)[C@H](CC(=O)O)NC(=O)[C@H](CCCCN)NC(=O)[C@H](CS)NC(=O)[C@H](CC(=O)O)NC(=O)[C@H](CC(N)=O)NC(=O)[C@H](Cc1ccccc1)NC(=O)[C@H](CCCCN)NC(=O)[C@H](CCCCN)NC(=O)[C@H](CCCCN)NC(C)=O)C(=O)N[C@H](C(=O)N[C@@H](CC(C)C)C(=O)N[C@@H](CCC(N)=O)C(=O)N[C@@H](CCSC)C(=O)N[C@@H](CC(N)=O)C(=O)N[C@@H](CC(C)C)C(=O)N[C@@H](CCCNC(=N)N)C(=O)N[C@@H](CCC(=O)O)C(=O)N[C@@H](Cc1ccc(O)cc1)C(=O)N[C@@H](CC(N)=O)C(=O)N[C@@H](CC1CCCCC1)C(=O)N[C@H](C(=O)O)C(C)C)[C@@H](C)CC [SBL-GQ-10] (Ac-KKKFNDCKDIILQMNLREYN[Cha]V-OH)	2	not able to induce a conformational change	–	–
Ac-KKKFNDCKDIILQMNLREYNLV-OH [SBL-GQ-08]	2	not able to induce a conformational change	–	–
CC[C@H](C)[C@H](NC(=O)[C@@H]1CCCCn2cc(nn2)C[C@H](NC(=O)[C@H](CC(N)=O)NC(=O)[C@H](Cc2ccccc2)NC(=O)[C@H](CCCCN)NC(=O)[C@H](CCCCN)NC(=O)[C@H](CCCCN)NC(C)=O)C(=O)N[C@@H](CS)C(=O)N[C@@H](CCCCN)C(=O)N[C@@H](CC(=O)O)C(=O)N1)C(=O)N[C@@H](CC(C)C)C(=O)N[C@@H](CCC(N)=O)C(=O)N[C@@H](CCSC)C(=O)N[C@@H](CC(N)=O)C(=O)N[C@@H](CC(C)C)C(=O)N[C@@H](CCCNC(=N)N)C(=O)N[C@@H](CCC(=O)O)C(=O)N[C@@H](Cc1ccc(O)cc1)C(=O)N[C@@H](CC(N)=O)C(=O)N[C@@H](CC(C)C)C(=O)N[C@H](C(=O)O)C(C)C [SBL-GQ-11] (Ac-KKKFN[Pra]CKD[Lys(N3)]ILQMNLREYNLV-OH; triazole 6-10)	7	–	slight increase in agonist affinity	~478
CC[C@H](C)[C@H](NC(=O)[C@@H]1CCCCn2cc(nn2)C[C@H](NC(=O)[C@H](CC(N)=O)NC(=O)[C@H](Cc2ccccc2)NC(=O)[C@H](CCCCN)NC(=O)[C@H](CCCCN)NC(=O)[C@H](CCCCN)NC(C)=O)C(=O)N[C@@H](CS)C(=O)N[C@@H](CCCCN)C(=O)N[C@@H](CC(=O)O)C(=O)N1)C(=O)N[C@@H](CC(C)C)C(=O)N[C@@H](CCC(N)=O)C(=O)N[C@@H](CCSC)C(=O)N[C@@H](CC(N)=O)C(=O)N[C@@H](CC(C)C)C(=O)N[C@@H](CCCNC(=N)N)C(=O)N[C@@H](CCC(=O)O)C(=O)N[C@@H](Cc1ccc(O)cc1)C(=O)N[C@@H](CC(N)=O)C(=O)N[C@@H](CC1CCCCC1)C(=O)N[C@H](C(=O)O)C(C)C [SBL-GQ-12] (Ac-KKKFN[Pra]CKD[Lys(N3)]ILQMNLREYN[Cha]V-OH; triazole 6-10)	34	–	more significant and promising stabilization of the receptor	~478
CC[C@H](C)[C@H](NC(=O)[C@@H]1CCCCn2cc(nn2)C[C@H](NC(=O)[C@H](C)NC(=O)[C@H](Cc2ccccc2)NC(=O)[C@H](CCCCN)NC(=O)[C@H](CCCCN)NC(=O)[C@H](CCCCN)NC(C)=O)C(=O)N[C@@H](C(C)C)C(=O)N[C@@H](CCCCN)C(=O)N[C@@H](CC(=O)O)C(=O)N1)C(=O)N[C@@H](CC(C)C)C(=O)N[C@@H](CCC(N)=O)C(=O)N[C@@H](CC(C)C)C(=O)N[C@@H](CC(N)=O)C(=O)N[C@@H](CC(C)C)C(=O)N[C@@H](CCCCN)C(=O)N[C@@H](CCC(=O)O)C(=O)N[C@@H](Cc1ccc(O)cc1)C(=O)N[C@@H](CC(N)=O)C(=O)N[C@@H](CC1CCCCC1)C(=O)N[C@H](C(=O)O)C(C)C [SBL-GQ-06] (Ac-KKKFA[Pra]VKD[Lys(N3)]ILQLNLKEYN[Cha]V-OH; triazole 6-10)	8	–	slight increase in agonist affinity	~478
Ac-KKKFAAVKDTILQLNLKEYNLV-OH [SBL-GQ-02]	2	not able to induce a conformational change	–	–
